Experimental data published in US20250282799A1, “SUBSTITUTED PYRIDO[4,3-d]PYRIMIDINES AS KRAS MODULATORS” (Alterome Therapeutics, Inc., priority 2023, published 2025).
pIC50: −log10 of the molar value.

Experiments:
KRAS (G12V)/CRAF = KRAS (G12V)/CRAF (Homo sapiens (Human), UniProt P01116, G12V); experiment: TR-FRET biochemical KRAS:CRAF protein:protein interaction assay, KRAS (G12V); format: binding; conditions: GMPPNP loaded Biotin-KRAS (G12V), FLAG CRAF RBD; read-out: TR-Fret_PPI KRAS (G12V)/CRAF IC50
Protocol: (§1) The effect of test compounds on KRAS and CRAF protein: protein interaction (PPI) was measured by time resolved fluorescence resonance energy transfer (TR-FRET) Ras binding domain (RBD) assay, which uses a signal generated through fluorescent resonance energy transfer between a donor and an acceptor molecule when in close proximity to each other. Interference from buffer, media, etc. is reduced by dual-wavelength detection; the energy pulse from the excitation source is followed by a time delay, which allows interfering short-lived fluorescence to decay (Degorce et al. 2009).
(§2) The KRAS: CRAF PPI assay can be utilized to identify KRAS ‘ON’ state inhibitors, as the KRAS protein is loaded with GMPPNP (a non-hydrolyzable GTP analog), which represents the active KRAS ‘ON’ state. FLAG-tagged CRAF RBD binding to the GMPPNP loaded biotin-tagged KRAS will result in a fluorescence energy transfer from the donor (Tb-anti-FLAG, emission 620 nm) to the acceptor (SA-XL665, emission 665 nm). Disruption of KRAS and CRAF binding will reduce the TR-FRET signal.
(§3) Test compound was dissolved in DMSO to create a 1 mM stock solution. A 45 μL volume of stock solution was transferred to a 384well polypropylene plate. A 3fold, 10point dilution was performed by transferring 15 μL of test compound solution into 30 μL of DMSO.
(§4) Assay buffer A was prepared with […] Hepes, pH7.3, 0.002% Tween 20, 0.1% BSA, […] NaCl, 5 mM MgCl2, and 10 uM GMP-PNP. 4× KRAS Solution was prepared with 80 nM of Biotin-KRAS (G12D/V), GMPPNP loaded or Biotin-KRAS (WT), GMPPNP loaded protein in assay buffer A. 4× Raf RBD Solution was prepared with 400 nM FLAG CRAF RBD in assay buffer A. 2× Detection Mixture was prepared with 2 nM Tb-anti-FLAG antibody and 10 nM and 10 nM SA-XL665 in assay buffer A.
(§5) A volume of 100 nL of 100× test compound working solution or DMSO vehicle control solution was dispensed to each well (duplicate for each concentration) of a 384-well ProxiPlate Plus assay plate. A volume of 2.5 μL of 4× KRAS Solution was added to each well of the assay plate for a final concentration of 20 nM Biotin-KRAS (G12D/V),GMPPNP loaded or 20 nM Biotin-KRAS (WT), GMPPNP. For low control, add 2.5 μL of assay buffer (no KRAS protein). Pre-incubate assay plate for 30 minutes at room temperature. Following pre-incubation of test compound or DMSO with Biotin-KRAS (G12D/V),GMPPNP loaded or Biotin-KRAS (WT),GMPPNP, a volume of 2.5 μL of 4× FLAG cRAF RBD Solution was added to each well of the assay plate for a final concentration of 100 nM FLAG CRAF RBD. The assay plate was subjected to centrifuge at 1000 rpm for 1 minute and pre-incubate assay plate for 150 minutes at room temperature. Following the pre-incubation with FLAG cRAF RBD, a volume of 5 μl of 2× Detection Mixture was added to each well of the assay plate for a final concentration of 1 nM Tb-anti-FLAG and 5 nM SA-XL665. The assay plate was centrifuged at 1000 rpm for 1 minute and incubated for 90 minutes at room temperature. TR-FRET signal was measured on a BioTek Synergy Neo2 microplate reader (excitation at 340 nm, emission at 665 nn and 620 nm).
(§6) TR-FRET ratios were calculated by dividing the acceptor emission value (665 nm) by the donor emission value (620 nm) for each sample.
(§7) Percent inhibition was calculated by multiplying the normalized TR-FRET ratio by 100, where TR-FRET ratio^HIGH was the TR-FRET ratio obtained from wells with 1% DMSO and complete reaction mixture, TR-FRET ratio^LOW was the ratio obtained from wells with 1% DMSO and reaction mixture without KRAS protein and TR-FRET ratio^SAMPLE was the TR-FRET ratio from wells with test compound and complete reaction mixture. The IC50 values were calculated from normalized TR-FRET ratios with the Levenberg-Marquardt 4 parameter fitting procedure.
(§8) This assay quantifies the interaction of a KRAS mutant protein (e.g., G12V) with the CRAF Ras-binding domain (RBD). […]

[1] = system: KRAS G12V dependent lung adenocarcinoma cell line, NCI-H441; experiment: Cellular pERK (Thr202/Tyr204) FRET/HTRF assay; format: cell-based; conditions: Homo sapiens, NCI-H441, cellular pERK (Thr202/Tyr204) HTRF, NCI-H441 cells
Procedure, shortened: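 NCI-H441, overnight plating → cpd 1 hr, 37 °C/5% CO2; DMSO neg ctrl. Lyse (phosphatase inhibitors), add donor/acceptor Abs, RT incubation, HTRF read. IC50 by curve fit.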

KRAS (G12D)/CRAF = KRAS (G12D)/CRAF (Homo sapiens (Human), UniProt P01116, G12D); experiment: TR-FRET biochemical KRAS:CRAF protein:protein interaction assay, KRAS (G12D); format: binding; conditions: GMPPNP loaded Biotin-KRAS (G12D), FLAG CRAF RBD; read-out: TR-Fret_PPI KRAS (G12D)/CRAF IC50
Protocol: as §1, §2, §3, §4, §5, §6, §7, §8

KRAS (G12V)/CRAF, sequence (P01116-2 other isoform, or with tags, fused parts or gaps G12V): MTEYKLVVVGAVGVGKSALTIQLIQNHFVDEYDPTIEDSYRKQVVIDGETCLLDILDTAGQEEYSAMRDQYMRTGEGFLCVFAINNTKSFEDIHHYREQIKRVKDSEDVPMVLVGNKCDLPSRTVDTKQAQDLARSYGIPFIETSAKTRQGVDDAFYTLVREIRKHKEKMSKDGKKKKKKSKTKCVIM
KRAS (G12D)/CRAF, sequence (P01116-2 other isoform, or with tags, fused parts or gaps G12D): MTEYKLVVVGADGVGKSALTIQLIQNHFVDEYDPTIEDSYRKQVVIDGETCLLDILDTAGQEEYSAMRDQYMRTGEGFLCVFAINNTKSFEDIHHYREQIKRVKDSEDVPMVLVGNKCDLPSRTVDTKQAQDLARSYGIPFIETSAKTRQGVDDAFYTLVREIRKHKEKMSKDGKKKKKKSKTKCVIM

Compound	pIC50 (KRAS (G12V)/CRAF)	pIC50 [1]	pIC50 (KRAS (G12D)/CRAF)
[2H]C([2H])(Oc1nc(N2CCOC[C@@H]3[C@H](Cl)[C@@H]32)c2cnc(-c3cc(N)cc4ccc(F)c(C#C)c34)c(F)c2n1)[C@@]12CCCN1C[C@H](F)C2 [Example 250, 4-(4-((1R,7R,8S)-8-chloro-5-oxa-2-azabicyclo[5.1.0]octan-2-yl)-8-fluoro-2-(((2R,7aS)-2-fluorotetrahydro-1H-pyrrolizin-7a(5H)-yl)methoxy-d2)pyrido[4,3-d]pyrimidin-7-yl)-5-ethynyl-6-fluoronaphthalen-2-amine]	5.52	6.30 to 7.30	5.78
[2H]C([2H])(Oc1nc(N2CCCC[C@@H]3[C@H](Cl)[C@@H]32)c2cnc(-c3cc(N)cc4ccc(F)c(C#C)c34)c(F)c2n1)[C@@]12CCCN1C[C@H](F)C2 [Example 343, 4-(4-((1R,7S,8S)-8-chloro-2-azabicyclo[5.1.0]octan-2-yl)-8-fluoro-2-(((2R,7aS)-2-fluorotetrahydro-1H-pyrrolizin-7a(5H)-yl)methoxy-d2)pyrido[4,3-d]pyrimidin-7-yl)-5-ethynyl-6-fluoronaphthalen-2-amine]	≤ 5.00	5.00 to 6.30	5.52
[2H]C([2H])(Oc1nc(N2CCOC[C@@H]3[C@@H](Cl)[C@@H]32)c2cnc(-c3cc(N)cc4ccc(F)c(C#C)c34)c(F)c2n1)[C@@]12CCCN1[C@H](C)[C@H](F)C2 [Example 339, 4-(4-((1R,7R,8R)-8-chloro-5-oxa-2-azabicyclo[5.1.0]octan-2-yl)-8-fluoro-2-(((2R,3R,7aS)-2-fluoro-3-methyltetrahydro-1H-pyrrolizin-7a(5H)-yl)methoxy-d2)pyrido[4,3-d]pyrimidin-7-yl)-5-ethynyl-6-fluoronaphthalen-2-amine]	≤ 5.00	5.00 to 6.30	5.52
[2H]C([2H])(Oc1nc(N2CCCC[C@H]3[C@H](Cl)[C@H]32)c2cnc(-c3cc(N)cc4ccc(F)c(C#C)c34)c(F)c2n1)[C@@]12CCCN1C[C@H](F)C2 [Example 342, 4-(4-((1S,7R,8S)-8-chloro-2-azabicyclo[5.1.0]octan-2-yl)-8-fluoro-2-(((2R,7aS)-2-fluorotetrahydro-1H-pyrrolizin-7a(5H)-yl)methoxy-d2)pyrido[4,3-d]pyrimidin-7-yl)-5-ethynyl-6-fluoronaphthalen-2-amine]	7.26	> 7.30	8.04
[2H]C([2H])(Oc1nc(N2CCOC[C@H]3[C@@H](F)[C@H]32)c2cnc(-c3cc(N)cc4ccc(F)c(C#C)c34)c(F)c2n1)[C@@]12CCCN1C[C@H](F)C2 [Example 225, 5-ethynyl-6-fluoro-4-(8-fluoro-4-((1S,7S,8R)-8-fluoro-5-oxa-2-azabicyclo[5.1.0]octan-2-yl)-2-(((2R,7aS)-2-fluorotetrahydro-1H-pyrrolizin-7a(5H)-yl)methoxy-d2)pyrido[4,3-d]pyrimidin-7-yl)naphthalen-2-amine]	5.54	> 7.30	6.58
[2H]C([2H])(Oc1nc(N2CCOC[C@@H]3[C@@H](F)[C@@H]32)c2c(OC)nc(-c3cc(N)cc4ccc(F)c(C#C)c34)c(F)c2n1)[C@@]12CCCN1C[C@H](F)C2 [Example 223, 5-ethynyl-6-fluoro-4-(8-fluoro-4-((1R,7R,8R)-8-fluoro-5-oxa-2-azabicyclo[5.1.0]octan-2-yl)-2-(((2R,7aS)-2-fluorotetrahydro-1H-pyrrolizin-7a(5H)-yl)methoxy-d2)-5-methoxypyrido[4,3-d]pyrimidin-7-yl)naphthalen-2-amine]	5.52	5.00 to 6.30	5.52
